The structures appear in SMILES notation.

Data on two molecules can be found in patent publication US10736967B2, “Method of preparing cyclodextrin complexes” (Panaceanano, Inc., priority 2016, dated 2020).

A short description of series [1]: Water solubility of salicylic acid by UV-VIS: loaded in γCD-MOF, without additive, or with γCD and KOH. It counts as physicochemical. The protocol: The dry, loaded CD-MOF samples were then dissolved in 10 mL water and stirred.
All water solubility shown in FIGS. 2-4 below were measured at room temperature.

The conditions of series [2]: cited from earlier work.
Setting [3] is: 30% loading (150 mg salicylic acid) in a 500 mg γCD-MOF sample, room temperature, FIG. 3 curve 20.
[4] abbreviates: added directly into a solution containing equivalent amounts of γCD and KOH (500 mg sample), room temperature, FIG. 3 curve 22.
Setting [5] is: un-complexed salicylic acid in the absence of a CD-MOF, room temperature, FIG. 3 curve 21.

Take `O=C(O)c1ccccc1O` [salicylic acid]: the “percentage of solubilized salicylic acid in 10 mL of water compared with no additive” value in series [1] (100 mg CD-MOF sample, loading percentage range of about 25-500%, FIG. 2 curve 10 vs curve 11) is “higher”. Besides, the “amount of salicylic acid solubilized in 10 mL of water (maximum reached)” value in series [1] (500 mg CD-MOF sample used as intermediate, room temperature, FIG. 4 curve 31) is listed as “up to 110 mg”. Moreover, the “percentage of solubilized salicylic acid in 10 mL of water compared with no additive and with γCD and KOH” value in series [1] (500 mg CD-MOF sample, loading percentage 10-100%, FIG. 3 curve 20 vs curves 21 and 22) is given as “significantly higher”. The figures for the “amount of salicylic acid solubilized in 10 mL of water” value in series [1] (setting [3]), in series [1] (setting [4]) and in series [1] (setting [5]) were “about 103 mg”, “about 58.5 mg” and “about 20 mg”, respectively. The figures for the “percentage of solubilized salicylic acid in 10 mL of water” value in series [1] (setting [3]), in series [1] (setting [4]) and in series [1] (setting [5]) were “about 69%”, “approximately 39%” and “approximately 13%”, respectively. Further, the “maximum amount of salicylic acid dissolved in 10 mL of water” value in series [1] (absence of any additive, room temperature, FIG. 4 curve 33) is given as “about 20 mg”.
Turning to `OC[C@H]1O[C@@H]2O[C@H]3[C@H](O)[C@@H](O)[C@@H](O[C@H]4[C@H](O)[C@@H](O)[C@@H](O[C@H]5[C@H](O)[C@@H](O)[C@@H](O[C@H]6[C@H](O)[C@@H](O)[C@@H](O[C@H]7[C@H](O)[C@@H](O)[C@@H](O[C@H]1[C@H](O)[C@H]2O)O[C@@H]7CO)O[C@@H]6CO)O[C@@H]5CO)O[C@@H]4CO)O[C@@H]3CO` [α-CD, α cyclodextrin], the solubility in water result in series [2] is recorded as “about 145 mg/mL”.
